Results taken from ChEMBL document CHEMBL2074185, “Differential effects of the breast cancer resistance protein on the cellular accumulation and cytotoxicity of 9-aminocamptothecin and 9-nitrocamptothecin” (Cancer Res, 2003).

Molecular target: T1, Broad substrate specificity ATP-binding cassette transporter ABCG2 (Homo sapiens, UniProt Q9UNQ0)
T1 sequence (Q9UNQ0 whole entry): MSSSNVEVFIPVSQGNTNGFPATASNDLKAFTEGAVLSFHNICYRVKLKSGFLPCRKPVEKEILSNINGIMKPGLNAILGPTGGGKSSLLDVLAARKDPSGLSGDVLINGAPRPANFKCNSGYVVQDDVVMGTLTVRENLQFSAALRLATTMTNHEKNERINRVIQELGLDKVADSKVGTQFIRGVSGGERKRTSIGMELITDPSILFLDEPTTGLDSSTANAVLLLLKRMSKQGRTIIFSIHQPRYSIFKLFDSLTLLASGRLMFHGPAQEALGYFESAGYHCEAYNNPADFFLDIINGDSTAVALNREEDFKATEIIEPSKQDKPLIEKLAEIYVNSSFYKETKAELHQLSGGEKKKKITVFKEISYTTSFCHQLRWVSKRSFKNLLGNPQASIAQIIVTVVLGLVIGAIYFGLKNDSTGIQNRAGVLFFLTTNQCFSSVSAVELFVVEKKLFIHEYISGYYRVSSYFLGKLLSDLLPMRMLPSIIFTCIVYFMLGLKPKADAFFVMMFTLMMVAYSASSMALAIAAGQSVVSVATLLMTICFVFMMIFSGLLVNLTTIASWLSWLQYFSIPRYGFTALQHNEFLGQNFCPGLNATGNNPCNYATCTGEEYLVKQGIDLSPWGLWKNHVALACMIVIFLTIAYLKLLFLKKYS
Experiment: TP_TRANSPORTER: uptake in BCRP-expressing HEK293 cells
Type: functional, cell-based

`CC[C@@]1(O)C(=O)OCc2c1cc1n(c2=O)Cc2cc3c(N)cccc3nc2-1` [9-AMINOCAMPTOTHECIN] was tested, and the Activity was “substrate []”.
